row,melting point [°C],Structure (SMILES)
1,154 to 156,CC(C(=O)NC1CCC(C(=O)O)CC1)n1cccn1 (stereo unspecified)
2,185 to 187,Nc1cc(-c2ccco2)nn1-c1cccc([N+](=O)[O-])c1
3,154 to 156,CCOc1ccccc1S(N)(=O)=O
4,231 to 233,O=S(=O)(c1cccc(-c2nnc(S)n2Cc2ccc(F)cc2)c1)N1CCOCC1
5,150 to 152,CS(=O)(=O)c1ccc(OCCCC(=O)O)cc1
6,93 to 95,O=Cc1ccccc1OCC(=O)NCC1CC1
7,146 to 148,N#CCC(=O)c1cc2ccccc2o1
8,119 to 121,COc1ccc(NC(=O)C=CC(=O)O)cc1OC
9,202 to 204,O=C(O)c1ccc(O)cc1F
10,149 to 151,NS(=O)(=O)c1ccccc1Cn1ccnc1
11,103 to 105,COc1ccc(OC)c(S(=O)(=O)N2CCNCC2)c1
12,73 to 75,O=C(O)C1CCN(C(=O)COc2ccccc2)CC1
13,116 to 118,CS(=O)(=O)C(Cc1ccccc1)C(=O)O (stereo unspecified)
14,64 to 66,COc1ccc(C(C)=O)cc1CSc1nnnn1C
15,132 to 134,CC(C)COc1cn(-c2ccccc2)nc1C(=O)O
16,143 to 147,Nc1ccc(S(=O)(=O)Nc2cccc(C(F)(F)F)c2)cc1N
17,137 to 139,O=C(O)Cc1csc(Cc2ccc(F)cc2)n1
18,130 to 132,NC(=O)c1ccc(OC(F)F)cc1
19,224 to 226,Cc1csc(NCC(=O)O)n1
20,159 to 161,CN(CCCC(=O)O)C1=NS(=O)(=O)c2ccccc21
21,146 to 148,CCCS(=O)(=O)N1CCC(=NO)CC1
22,174 to 176,CC1CCN(c2ccc(NC(=O)CCC(=O)O)cc2)CC1
23,88 to 90,CCOc1ccc(C2(O)CCCC2)cc1
24,151 to 153,Cn1c(S)nnc1C1CCS(=O)(=O)C1 (stereo unspecified)
25,130 to 132,Nc1ccc(NC(=O)c2ccccc2)cc1C(F)(F)F
26,156 to 158,Cc1cccc(C2(C(=O)O)CCCC2)c1
27,183 to 185,O=Cc1cn2cc(Cl)ccc2n1
28,274 to 276,Cc1cc(=O)[nH]c(C)c1C(=O)O
29,145 to 147,O=C(O)c1cccnc1SCC1CCCCC1
30,153 to 155,Cc1cc([N+](=O)[O-])n[nH]1

# More lines, now with the values behind:
row,Structure (SMILES),melting point [°C]
1,Nc1nc(N2CCOCC2)ns1,187 to 189
2,O=c1c(Cl)c(Cl)cnn1Cc1ccccc1,87 to 89
3,O=C(O)c1cnc(-c2ccoc2)s1,226 to 228
4,O=C(O)C1CCN(C(=O)c2ccccc2)CC1,144 to 146
5,Oc1ccc(-c2ncc[nH]2)cc1,265 to 267
6,Cc1ccc(NC(=O)CCl)c(C)c1,153 to 155
7,Nc1nc2c(F)c(F)ccc2s1,49 to 51
8,COc1ccc(CCCCCC(=O)O)cc1,46 to 48
9,NNC(=O)Cc1cccc(F)c1,106 to 108
10,CCCCn1c(N)c(NC)c(=O)[nH]c1=O,201 to 203
11,Sc1nnc(-c2c[nH]c3ccccc23)n1CC1CCCO1 (stereo unspecified),251 to 253
12,COC(=O)C1CNC(=O)C1 (stereo unspecified),58 to 60
13,Cc1nnc(CO)s1,83 to 85
14,Cc1c(S(=O)(=O)Cl)sc2cccc(F)c12,114 to 116
15,CC(C(=O)O)c1cccc(Cl)c1 (stereo unspecified),75 to 77
16,O=C(O)c1oc2ccccc2c1CSC1CCCCC1,158 to 160
17,CC(CS(=O)(=O)c1ccc(F)cc1)C(=O)O (stereo unspecified),128 to 130
18,CC(=O)c1ccc(NS(=O)(=O)c2ccc(C)cc2)cc1,170 to 172
19,Sc1nncn1CCc1ccccn1,204 to 206
20,COc1ccccc1-c1nnc(N)o1,175 to 177
21,Cc1ccc(-c2nn(-c3ccccc3)cc2/C=C(\C#N)C(=O)O)cc1,295 to 297

row,Structure (SMILES),melting point [°C]
1,O=C(O)c1cc(C2CC2)nc2ccccc12,208 to 210
2,COc1cc(C#N)cc(Cl)c1OC(C)C,84 to 86
3,Cc1ccc(S(=O)(=O)Cl)c([N+](=O)[O-])c1,97 to 99
4,O[C@@H]1CCNC1,15 to 17
5,O=C(O)c1cn2ccccc2n1,242 to 244
6,CCOc1ccc(NC(=O)c2ccc(NC(=O)CCl)cc2)cc1,253 to 255
7,Clc1ccc(C2CC2)nn1,103 to 105
8,CC(Nc1ccc(Cl)cc1Cl)C(=O)O (stereo unspecified),146 to 148
9,CCSc1ccccc1C(=O)O,135 to 137
10,CCOc1c(Br)cc(C=O)cc1OC,84 to 86
11,Cc1cc(C(=O)CCl)c(C)n1Cc1cccs1,83 to 85
12,Brc1ccc(CN2CCNCC2)s1,50 to 52
13,COc1ccccc1C(C)NC(=O)C(C)Cl (stereo unspecified),109 to 111
14,CC(C)=CCSc1ccccc1C(=O)O,138 to 140
15,CCCCc1ccc(NC2=NCCCS2)cc1,70 to 72
16,CC(C)c1nc(C(=O)O)nn1-c1ccccc1F,159 to 161
17,Cc1cc(C)n(CC(=O)NN)n1,102 to 104
18,Cc1cc(C(F)(F)F)c(C#N)c(SCC(=O)O)n1,132 to 134
19,CCCC1CCc2[nH]c(=O)c(C#N)cc2C1 (stereo unspecified),233 to 235
20,COC(=O)c1ccc(C(=O)OC)c(NC(=O)C(C)Cl)c1 (stereo unspecified),128 to 130

# Reference: a melting point compilation (Tetko et al.)
